In the OPERA property sets (Mansouri et al. 2018) one finds logP data, which are given here for 140 molecules.

Peptide text beside a SMILES is read from it. * marks the point of attachment. NHtBu = CC(C)(C)N*

Broadly, the logP is the decadic logarithm of the partition coefficient of the neutral form, usually between octanol and water. Turning to `c1ccc2occc2c1`, the logP was 2.67. To `O=C(O)COc1ccccc1F` belongs 1.39. To `Cn1nnnc1SCC1=C(C(=O)O)N2C(=O)C(NC(=O)CSCC#N)C2SC1` (stereo not given) belongs -0.62. Next, `O=NN(CCCl)C(=O)NC1CCC(C(=O)O)CC1` (stereo not given): 1.68; `O=C1C=CC(=NBr)C=C1`: 1.12. As to `CC1CC2C3CCC4=CC(=O)C=CC4(C)C3(F)C(=O)CC2(C)C1(O)C(=O)CCl` (stereo not given), the logP worked out at 2.61. Next, `CCOC(=O)C(O)c1ccccc1` (stereo not given): 1.53; `CN1C(=O)CCC1=O`: -0.95. For the molecule `CCc1ccc([N+](=O)[O-])cc1`, the logP was 3.03. Next, `CCCCCNc1nc(NCC)nc(SC(F)F)n1`: 4.71. Next, `OCCCCCc1cccnc1`: 1.41; `O=C(Nc1ccccc1)Nc1ccccc1`: 3.

Molecule `CC(=O)Cc1ccccc1` came in with a logP of 1.44. With `Nc1ncc([N+](=O)[O-])s1`, the logP came to 0.83. Next, `O=CNC(=O)C1CCC1`: -0.7; `O=I(=O)c1ccccc1`: -1.33. To `COc1ccc(CC#N)cc1OC` belongs 1.15.

With `O=C(O)c1ccc(O)cc1O`, the logP was 1.63.

In turn, `CNC(=O)Oc1ccccc1[N+](=O)[O-]` came in with a logP of 1.02. Next, `COc1cccc2c1C(=O)c1c(O)c3c(c(O)c1C2=O)CC(O)(C(C)O)CC3OC1CC(N2CCOCC2)C(O)C(C)O1` (stereo not given): 2.03. Next, `CCOC(=O)CON=Cc1ccc(OCC(=O)OCC)c(OC)c1`: 1.87; `NNC(=O)c1ccccc1`: 0.19.

The molecule `Clc1ccccc1Cl` registered a logP of 3.43.

As for `NC(=O)Nc1ccc(Oc2ccccc2)cc1`, the logP came out at 2.8. Next, `Brc1ccc(-c2cc3ccccn3c2)cc1`: 5.43. Next, `CNC(=O)Oc1cccc(C(C)(C)C)c1`: 2.93. Next, `OCC(F)(F)F`: 0.41.

In turn, `O=C1CCC(=O)N1c1ccc([N+](=O)[O-])cc1` came in with a logP of 0.46. `OCCNCc1ccccc1` had a logP of 0.79. To `Nc1ccc(C2CCCCC2)cc1` belongs 3.65; to `CC(=O)C(=Cc1ccc(Br)cc1)C(C)=O`, 2.75; to `CC(=O)NC(C)C(=O)NC(Cc1ccccc1)C(=O)NC(C)C(=O)NC(C)(C)C` (stereo not drawn) (Ac-Ala-Phe-Ala-NHtBu; configuration not given here), 1.01.

For `CCC(N)Cc1ccccc1` (stereo not given), the lipophilicity (logP) turned out to be 2.28. Consider `Nc1nc(N)nc(-c2ccccc2Cl)n1`, for which the logP was found to be 1.19. Next, `CCCC(=O)CC(=O)CCC`: 2.23.

As for `C[C@]1(O)CC[C@H]2[C@@H]3CCC4=CC(=O)CC[C@@H]4[C@H]3CC[C@@]21C`, the logP amounted to 2.99. Next, `O=C(O)C(c1ccc(-c2ccccc2)cc1)C(O)c1cccc(F)c1` (stereo not given): 3.31; `FC(F)(F)Cl`: 1.65. To `CC(=O)Nc1ccccc1Cl` belongs 1.28. To `CNC(=O)Oc1ccc(Cl)cc1` belongs 2.01.

Turning to `CC(C)c1ccc(OC(=O)c2ccc(N)cc2O)cc1`, the lipophilicity (logP) is 4.12. To `O=C(O)Cc1ccccc1Nc1cccc(Cl)c1Cl` belongs 4.86; to `NC(=O)N/N=C/c1ccc([N+](=O)[O-])o1`, 0.23; to `COC(C)(C)CCCC(C)C/C=C/C(C)=C/C(=O)OC(C)C` (stereo not given), 5.5. To `CC(=O)Nc1ccc(F)cc1` belongs 1.47.

In turn, `C[C@H]1C[C@H]2[C@@H]3CCC4=CC(=O)C=C[C@]4(C)[C@@]3(F)[C@@H](O)C[C@]2(C)[C@@]1(O)C(=O)CCl` gave a logP of 2.48. Next, `CCC(C)OC(C)=O` (stereo not given): 1.72; `O=C1c2ccccc2C(=O)N1c1ccccc1`: 2.4. On to `OCCCc1ccncc1`, for which the logP came to 0.58. Next, `OCCCF`: -0.28; `CCCC(N)=O`: -0.21; `CC(C)NNC(=O)COc1ccc(Cl)cc1`: 2.02. Next, `O=C(O)CCCCN1C(=O)C=CC1=O`: 0.6.

Molecule `O=Nc1ccc2ccccc2c1O` had a logP of 2.46. Next, `O=C(O)c1ccc(O)c(O)c1O`: 1.05; `COC=O`: 0.03; `O=C(O)c1cccc(C(F)(F)F)c1`: 2.95. Next, `COc1cccc(CNC(=O)C2(O)C(C)CC3C4CCC5=CC(=O)C=CC5(C)C4(F)C(O)CC32C)c1` (stereo not given): 3.27; `FC(F)(F)Br`: 1.86; `FC(F)(F)c1cccc(C(F)(F)F)c1`: 3.83. Turning to `CCCCC1OC(=O)c2ccccc21` (stereo not given), the logP was 2.8. To `CCCCCCOc1ccc(NC(=O)OCCN2CCCCC2)cc1` belongs 5.41. Next, `CCCCOc1ccc(CC(=O)NO)cc1`: 2.08; `OCCCc1cccnc1`: 0.6. Molecule `CCN(CC)CCSC(=NO)c1nc(-c2cccc3ccccc23)no1` came in with a logP of 3.87. To `CCOC(=O)C=Cc1ccc(O)c(O)c1` belongs 2.56. Next, `CCCCNc1ccccc1OC`: 2.85; `Cc1cscn1`: 0.97; `CC(=O)N(C)N=Nc1ccc(C(N)=O)cc1`: 1.37. `O=[N+]([O-])c1ccc2[nH]nnc2c1` yielded a lipophilicity (logP) of 1.95. To `CCCl` belongs 1.43. Take `c1cn[nH]c1`: the logP was 0.26. Molecule `CC(=O)C=Cc1ccccc1` showed a lipophilicity (logP) of 2.07. For the molecule `O=c1[nH]cc(Cl)c(=O)[nH]1`, the logP is -0.35. Next, `CCOC(=O)C(=Cc1ccc(Br)cc1)C(=O)OCC`: 4.02; `CCCOc1ccc(O)cc1`: 2.33. Next, `N#CCNc1ccccc1C(N)=O`: 0.5. Next, `CC=CC` (mixture of isomers): 2.33; `CC(=O)c1ccc(C(O)C(CO)NC(=O)C(Cl)Cl)cc1` (stereo not given): 0.57. In turn, `N#CCC(N)=C(C#N)C#N` showed a logP of -0.13.

Take `COc1cccc(C=C(C(N)=O)C(N)=O)c1`: the logP came to 0.01. In turn, `c1ccc(-c2ccncn2)cc1` registered a logP of 1.92. `ON=Cc1ccncc1` had a logP of 0.77. Regarding `O=C(O)c1ccc2oc3ccccc3c(=O)c2c1`, the logP was determined as 3.12. Next, `NCc1ccccn1`: -0.21; `O=c1[nH]c2ccccc2o1`: 1.16; `O=[N+]([O-])c1cn[nH]c1`: 0.59. To `NC(=O)c1ccc(F)cc1` belongs 0.91; to `COCc1ccccc1`, 1.92. Consider `O=C(OC(=O)c1ccccc1)c1ccccc1`, for which the logP is 2.26.

For `COc1ccccc1Oc1ccccc1`, the logP stood at 2.92. To `CNC(=O)Oc1ccc(C)c(C)c1` belongs 2.09; to `CCCNC(=O)NS(=O)(=O)c1ccc(Cl)cc1`, 2.27; to `CON(C)C(=O)Nc1cccc(C(F)(F)F)c1`, 2.64. Regarding `CC1=NOC(=O)C1=NNc1ccccc1Cl`, the logP was 2.6. For the molecule `O=C(O)CSCc1ccccc1`, the logP came out at 2.1. To `S=C=S` belongs 1.94. Next, `Nc1nc2nc[nH]c2c(=S)[nH]1`: -0.07; `CC1(C)CCCC(C)(C)N1`: 2.15; `NN(c1ccccc1)c1ccccc1`: 2.8. Next, `CN(C)CCOC(=O)c1ccc([N+](=O)[O-])cc1`: 1.7. `CC(=O)c1ccccc1S(I)=C(N(C)C)N(C)C` (stereo not given): the logP was -0.81.

As to `Cc1ccc(OCC(=O)NNC(C)C)cc1`, the logP came to 1.81. To `CN(C)c1ccc(C(=C2C=CC(=[N+](C)C)C=C2)c2ccccc2)cc1.[Cl-]` belongs 0.62; to `CN(C)C(N(C)C)=S(I)c1cccc(I)c1` (stereo not given), 0.29; to `C=CCN(CC=C)CC=C`, 2.59. Molecule `CCNc1nc(Cl)nc(NC(C)C)n1` gave a logP of 2.61. To `O=[N+]([O-])c1ccccc1Nc1ccccc1` belongs 3.66; to `CNP(=O)(OC)Oc1ccc(OC)cc1` (stereo not given), 1.06. The molecule `O=C(O)c1cccc(Br)c1` had a logP of 2.87.

`CCN(CC)C(=O)C(C)Oc1cccc2ccccc12` (stereo not given) returned a logP of 3.36. To `NCCc1ccccc1` belongs 1.41. Next, `O=C(O)c1ccsc1`: 1.5. For `CC(Oc1ccc(Cl)cc1)C(=O)O` (stereo not given), the logP came to 2.31.

Molecule `CN(C)N=Nc1cccc(Cl)c1` came in with a logP of 3.44. The molecule `OC(Cn1ccnc1)c1ccc(CCc2ccccc2)cc1` (stereo not given) had a logP of 3.4. For the molecule `CN(C)c1cccc2cccnc12`, the logP stood at 2.73.

As to `Fc1cccc(CCl)c1`, the logP was 2.77.

In turn, `Nc1ccc(N)cc1` returned a logP of -0.3. Next, `c1ccc2c(c1)OCCO2`: 2.01; `O=Nc1c(Br)cc2ccccc2c1O`: 2.93. `Oc1ccc(Cn2cc[nH]c2=S)cc1` came in with a logP of 1.02. Next, `CC(C)c1ccc(C(=O)O)cc1`: 3.4; `CNC(=O)Oc1cc(C)c(C)c(C)c1`: 2.66; `O=c1[nH]cnc2nc[nH]c12`: -1.11.

`c1ccc(Cc2cc(-c3ccccc3)nnc2NCCN2CCOCC2)cc1` displayed a logP of 3.65. To `NCCN1CCCC1` belongs 0.08; to `Nc1cc2c3ccccc3ccc2c2ccccc12`, 4.99. `CNC(=O)Oc1ccccc1OC(C)C` came in with a logP of 1.52. To `CN(C)c1ccc2c(c1)C(c1ccccc1Cl)=NCC(=O)N2C` belongs 2.72.

`FC(F)(F)c1cccc2cccnc12` gave a log partition coefficient (logP) of 2.5. Regarding `CCCCCNc1nc(NC)nc(SC(F)F)n1`, the logP came out at 4.42.

`Nc1ccc(C(=O)O)c(Cl)c1`: the logP amounted to 1.33. Consider `COC(=O)CC#N`, for which the logP is -0.47. With `N#Cc1cccc2[nH]ccc12`, the lipophilicity (logP) is 2.46.

Turning to `CC(C)c1ccccc1N`, the logP came out at 2.12. Next, `CN(O)C(N)=O`: -0.46; `CCCN1CCCC[C@H]1C(=O)Nc1c(C)cccc1C`: 2.9; `O=C(O)CONC(=O)c1ccccc1`: -0.27. In turn, `O=c1[nH]c(=O)n(C2CCCO2)cc1F` (stereo not given) showed a logP of -0.27.
